# Test results published in patent US20190374618A1, “FIBRONECTIN OR ILK INHIBITORS FOR USE IN THE TREATMENT OF LEUKEMIA” (Chemotherapeutisches Forschungsinstitut Georg-Speyer-Haus, priority 2016, published 2019).
# Columns and labels:
# [1] = patients, cardiovascular toxicity reference; cited from earlier work
# BCR-ABL1^T315I+ CML [2] = assay: intrafemoral co-injection of fibronectin with leukemia-initiating cells, retroviral transduction/transplantation model of CML; assay type: in vivo, mouse (Balb/c)
# Source text: FIG. 7: White blood cell counts per μl in peripheral blood (a) and survival (b) of mice intravenously transplanted (no FN) or intrafemorally co-transplanted with BCR-ABL1 (gray colors)- or BCR-ABL1T315I (blue colors)-transduced bone marrow and vehicle or FN.
# (§1) The inventors have shown by immunofluorescence (FIG. 5) and immunohistochemistry of bone sections of mice transplanted with empty vector-transduced cells, or mice with BCR-ABL1^WT+ or BCR-ABL1^T315I+ CML-like myeloproliferative neoplasia (FIG. 6), that BCR-ABL1^T315I+ cells deposit less fibronectin in their environment than BCR-ABL1^WT+ cells, which is likely also reflected by their differences in their interaction with the BMM.
# (§2) Our retroviral stock was generated and bone marrow transplantation experiments were performed as described earlier (9, 14, 16). In general, we injected between 2.25 and 2.5×10^5 transduced cells into female irradiated (750 cGy) Balb/c recipient mice. The T315I point mutation in BCR-ABL1 was introduced by site-directed mutagenesis in the open reading frame of the MSCV IRES GFP vector.
# (§3) Therapeutic application of fibronectin was performed as follows: intravenous application of 200 μg bovine fibronectin (in HBSS) on days 9, 10 and 12 post transplantation; for vehicle control treatments, 200 μl of HBSS (equal volume to fibronectin dose) was administered. […]
# BCR-ABL1^T315I+ CML [3] = assay: intravenous fibronectin on days 9, 10 and 12 post transplantation, retroviral transduction/transplantation model of CML; assay type: in vivo, mouse (Balb/c); conditions: three intravenous injections on days 9, 10 and 12 post transplantation, BCR-ABL1T315I+ CML vs vehicle-treated mice, FIG. 8
# Source text: FIG. 8: Kaplan-Meier survival curve of mice intravenously transplanted with BCR-ABL1 (gray colours) or BCR-ABL1T315I (blue colours)-transduced bone marrow treated with vehicle or FN on days 9, 10 and 12 after transplantation.
# as §1, §2, §3
# LSC in CML = conditions: but not AML; cited from earlier work
molecule,measurement,setting,value
Cc1nc(Nc2ncc(C(=O)Nc3c(C)cccc3Cl)s2)cc(N2CCN(CCO)CC2)n1 [dasatinib],adverse events,[1],frequently associated with severe adverse events
Cc1cn(-c2cc(NC(=O)c3ccc(C)c(Nc4nccc(-c5cccnc5)n4)c3)cc(C(F)(F)F)c2)cn1 [nilotinib],adverse events,[1],frequently associated with severe adverse events
Cc1ccc(C(=O)Nc2ccc(CN3CCN(C)CC3)c(C(F)(F)F)c2)cc1C#Cc1cnc2cccnn12 [ponatinib],adverse events,[1],frequently associated with severe adverse events
fibronectin: Murine fibronectin (Abcam ab92784) for intrafemoral injection; lyophilized bovine fibronectin (Thermo Fisher 33010018) for intravenous application,tumor burden (white blood cell counts per μl in peripheral blood),"BCR-ABL1^T315I+ CML [2]; intrafemoral co-injection of fibronectin with BCR-ABL1WT+ or BCR-ABL1T315I+ leukemia-initiating cells vs vehicle, FIG. 7a",significantly decreased the tumor burden
same,survival,"BCR-ABL1^T315I+ CML [2]; recipients of BCR-ABL1T315I-transduced bone marrow, intrafemoral co-injection vs vehicle, FIG. 7b",prolonged survival
same,survival,BCR-ABL1^T315I+ CML [3],significant prolongation of survival
"parathyroid hormone: the most potent regulator of bone turnover (protein, UniProt P01270 32-115, looked up, Parathyroid hormone) Parathyroid hormone: SVSEIQLMHNLGKHLNSMERVEWLRKKLQDVHNFVALGAPLAPRDAGSQRPRKKEDNVLVESHEKSLGEADKADVNVLTKAKSQ",LSC number,LSC in CML,reduction of LSC in CML
